The results in this text go back to patent US20260098045A1, “CRYSTALLINE FORM OF (3S,7S,10R,13R)-13-BENZYL-20-FLUORO-7-ISOBUTYL-N-(2-(3-METHOXY-1,2,4-OXADIAZOL-5-YL)ETHYL)-6,9-DIMETHYL-1,5,8,11-TETRAOXO-10-(2,2,2-TRIFLUOROETHYL)-1,2,3,4,5,6,7,8,9,10,11,12,13,14-TETRADECAHYDRO-[1]OXA[4,7,10,14]TETRAAZACYCLOHEPTADECINO[16,17-F]QUINOLINE-3-CARBOXAMIDE” (Idorsia Pharmaceuticals Ltd, priority 2022, published 2026).

The series can be described thus: Gravimetric vapour sorption (GVS) analysis. The class given is physicochemical. Conditions: sample of Example 6. Here is the method: Measurements are performed on a multi-sample instrument SPS-100n (Projekt Messtechnik, Ulm, Germany), which is operated in stepping mode at 25° C. A sample of approximately 20 mg is equilibrated at 40% RH before starting a pre-defined humidity program of 40-0-95-0-95-40% RH with steps of 5% ARH and a maximum equilibration time of 24 h per step. The hygroscopic classification is done according to the European Pharmacopeia Technical Guide (1999, page 86), e.g., non-hygroscopic: increase in mass less than 0.2% mass/mass; slightly hygroscopic: increase in mass is less than 2% and equal to or greater than 0.2% mass/mass; hygroscopic: increase in mass is less than 15% and equal to or greater than 2% mass/mass. The mass change between 40% relative humidity and 80% relative humidity in the first adsorption scan is evaluated for this classification.

For the compound `COc1noc(CCNC(=O)[C@@H]2CC(=O)N(C)[C@@H](CC(C)C)C(=O)N(C)[C@H](CC(F)(F)F)C(=O)N[C@H](Cc3ccccc3)COc3ccc4ncc(F)cc4c3C(=O)N2)n1` [form 1 of the COMPOUND, (3S,7S,10R,13R)-13-benzyl-20-fluoro-7-isobutyl-N-(2-(3-methoxy-1,2,4-oxadiazol-5-yl)ethyl)-6,9-dimethyl-1,5,8,11-tetraoxo-10-(2,2,2-trifluoroethyl)-1,2,3,4,5,6,7,8,9,10,11,12,13,14-tetradecahydro-[1]oxa[4,7,10,14]tetraazacycloheptadecino[16,17-f]quinoline-3-carboxamide], the “GVS change of the water content” value (between 0% and 95% RH, 25° C., almost linear, small hysteresis between ca. 50% and 85% RH) came to 2%. Besides, under “corresponds to approximately 1 equivalent of water”, the “GVS maximum water content” value worked out at 2%.
